Experimental data from PMC9289467, “A Novel Multifunctional 5,6-Dimethoxy-Indanone-Chalcone-Carbamate Hybrids Alleviates Cognitive Decline in Alzheimer’s Disease by Dual Inhibition of Acetylcholinesterase and Inflammation” (Frontiers in Aging Neuroscience, 2022).

Experiments:
[1] = test system: Iba1+ microglia; assay: Iba1 immunohistochemistry, microglia morphology, APP/PS1 mice; format: in vivo; details: AP5 40 mg/kg once daily 5 months
Procedure: (§1) APP/PS1 mice of ages 6 months were randomly divided into vehicle (APP/PS1, n = 10) and treatment groups (AP5, n = 10), which were intragastrically administered with AP5 (40 mg/kg) once daily for consecutive 5 months. AP5 was dissolved in distilled water containing 1% sodium carboxymethyl cellulose.
The fixed hemibrains were paraffin-embedded and sectioned in the coronal plane. The slices were deparaffinized with xylene and rehydrated by a series of gradient alcohols. Antigen retrieval through microwave boiling was performed with 10 mM sodium citrate solution at pH 6.0. The slices were cooled down to room temperature and then rinsed in PBS solution. Then the slices were incubated in 10% goat serum blocking solution for 1 h followed by primary antibodies overnight at 4°C. The next day, the slides were labeled with biotinylated or fluorescent secondary antibodies. Slices were washed three times with PBS before being mounted. Images were captured using a SpinSR10 scanner (Olympus, Tokyo, Japan). […]
After deparaffinization and antigen retrieval, the sections were incubated with 0.3% hydrogen peroxide (H2O2) to inhibit endogenous peroxidase activity for 20 min and blocked by goat serum for 30 min at37°C. Slides were subsequently incubated overnight with specific primary antibodies: anti-Iba1(1:100, ab178847, Abcam, Cambridge, UK) or anti-GFAP (1:100, bs-0199R, Bioss) at4 °C. […]

[2] = test system: Aβ plaque-associated microglia and astrocytes; assay: Plaque-associated microglia and astrocytes (MOAB-2 with Iba1 or GFAP co-staining); format: in vivo, APP/PS1 mice
Procedure: as §1
The fixed hemibrains were paraffin-embedded and sectioned in the coronal plane. The slices were deparaffinized with xylene and rehydrated by a series of gradient alcohols. Antigen retrieval through microwave boiling was performed with 10 mM sodium citrate solution at pH 6.0. The slices were cooled down to room temperature and then rinsed in PBS solution. […]
(1:100, BAF2655, R&D, Minneapolis, MN, USA). […] For the quantification of Aβ plaque-associated microglia and astrocyte, Iba1- and GFAP-immunopositive cells around plaques were counted. On each slide, ten plaques were randomly determined and the microglia (nuclei) in the immediate vicinity (two times the plaque diameter) of each plaque were counted. For colocalization of PSD95 and synaptophysin, images were analyzed with the puncta analyzer plugin with a minimum pixel specification of 4 in Image Jand thresholding was consistent for every image. […]
anti-synaptophysin (1:1000, 67864-1-lg, Proteintech) overnight at 4°C. […] Densitometric analysis was performed using Quantity One software (Bio-Rad, Berkeley, CA, USA). […]

[3] = test system: NeuN, MAP2; assay: NeuN and MAP2 co-immunostaining and western blot, hippocampus; format: in vivo, APP/PS1 mice
Procedure: as §1
The fixed hemibrains were paraffin-embedded and sectioned in the coronal plane. The slices were deparaffinized with xylene and rehydrated by a series of gradient alcohols. Antigen retrieval through microwave boiling was performed with 10 mM sodium citrate solution at pH 6.0. The slices were cooled down to room temperature and then rinsed in PBS solution. Then the slices were incubated in 10% goat serum blocking solution for 1 h followed by primary antibodies overnight at 4°C. The next day, the slides were labeled with biotinylated or fluorescent secondary antibodies. Slices were washed three times with PBS before being mounted. Images were captured using a SpinSR10 scanner (Olympus, Tokyo, Japan).
Frozen hippocampus and cortex were homogenized in pre-cooling RIPA buffer (P0013B, Beyotime) supplemented with 1 mM phenylmethanesulfonyl fluoride (PMSF) and cocktail of protease and phosphatase inhibitors. […] The membranes were incubated with 5% fat-free milk blocking solution for 1 h at room temperature and then probed with primary antibodies overnight at 4°C. […] Densitometric analysis was performed using Quantity One software (Bio-Rad, Berkeley, CA, United States).
Briefly, for ACh assay, the reactions were started by adding 100 µL of the Amplex Red reagent, HRP, choline oxidase, AChE working solution to each microplate well containing the controls and samples. […] Assay plates were incubated at room temperature for 30 min and protected from light, followed by detecting fluorescence of resorufin (λex = 544 nm, λem = 590 nm) in a fluorescence microplate reader. […]
(1:100, BAF2655, R&D, Minneapolis, MN, USA). […] For the quantification of Aβ plaque-associated microglia and […]

[4] = hippocampal CA1 pyramidal layer

## CCN(C)C(=O)Oc1cccc(/C=C2\Cc3cc(OC)c(OC)cc3C2=O)c1 [AP5, (E)-3-((5,6-dimethoxy-1-oxo-1,3-dihydro-2H-inden-2-ylidene)-methyl)phenylethyl(methyl)carbamate]
[1]
  proportion of activated microglia phenotype: marked decrease
[2]; MOAB-2 and GFAP co-staining
  number of astrocytes around Aβ plaque: no statistical difference
[2]; MOAB-2 and Iba1 co-staining
  plaque-associated microglia: increased clustering of microglia surrounding a plaque
[3]; [4]
  MAP2 signals: restored
  average number of NeuN+ cells: restored
[3]; western blot, hippocampus
  protein expression of NeuN and MAP2: markedly increased
